From patent US20200255492A1, “LEPTIN PEPTIDES AND THEIR USE FOR TREATING NEUROLOGICAL DISORDERS” (UNIVERSITY OF DUNDEE, priority 2017, published 2020)

System: mitochondria
Experiment: MitoRed analysis of mitochondrial morphology after 6-OHDA (cellular Parkinson's Disease model)
Type: cell-based
Conditions: 100 μM; 1 hour
Method: Cultures were established on 3 separate occasions in quadruplicate and stained with MitoRED to identify mitochondria after 1 hour of treatment. Statistical significance relative to untreated control is denoted with ** where P<0.01 and *** where P<0.001. Representative images of 100 μM 6-OHDA-treated MitoRED stained cultures (C) and 100 μM 6-OHDA and leptin116-130 co-treated MitoRED stained cultures are shown. Scale bar represents […].
The human neuroblastoma cell line, SH-SY5Y (ECACC, UK) was maintained in Dulbecco's Modified Eagle Medium supplemented with glucose ([…]) and 10% (v/v) cosmic calf serum (Fisher Scientific, UK) at 37° C. in a humidified atmosphere of 5% CO2, 95% air and allowed to reach 70-80% confluence before seeding. Cells (passage 10-18) were plated at 2×10^5 cells on 13 mm borosilicate class coverslips or at 10 000 cells per well in 96 well tissue culture plates (Nunc, VWR, UK) prior to treatment. Reagents used were (from Sigma UK unless stated) 1 nM human leptin, leptin (116-121), leptin (117-122) and leptin (117-125); 0.0001-1 nm murine leptin fragments leptin (116-121), leptin (117-122) and leptin (116-130); 100 μM 6-hydroxydopamine; 10 μM CuCl2; […] Aβ1-42.
Cells were treated with pre-warmed cell culture medium containing 1 μM MitoRed ((9-[2-(4′-Methylcoumarin-7′-oxycarbonyl)phenyl]-3,6-bis(diethylamino)xanthylium chloride) and returned to the incubator for 45 minutes. Following fixation in NBF for 15 minutes, cells were washed 3 times in PBS. Coverslips were mounted in fluorescence mountant onto microscope slides and imaged on the Zeiss Axio MR2 microscope. The mean mitochondrial area and index of fragmentation (number of mitochondria: total area of mitochondrial material) were calculated using Fiji.

NCCc1cc(O)c(O)cc1O [6-OHDA, 6-hydroxydopamine, reference compound]
cross-sectional area of individual mitochondria, 6-OHDA alone: increase in the cross-sectional area of individual mitochondria | mitochondrial fragmentation, 6-OHDA alone: decrease in mitochondrial fragmentation
